The text below walks through data of ChEMBL document CHEMBL4483862, “Open-source discovery of chemical leads for next-generation chemoprotective antimalarials” (2018).

The test system of this experiment is Plasmodium berghei. Kind of experiment: Luciferase/luciferin-expressing antifolate-resistant parasites were used to infect a culture of HepG2 cells that were pre-incubated with compounds. Infected hepatocytes emit light due to the luciferase reaction. Assay results are presented as the percent inhibition of light emission compared to control. […]. It counts as functional. As to conditions: sporozoite; for IC90: read-out: LUCIFERASE INFECTION ASSAY - IC90.

For orientation: IC50 means the concentration needed to halve the response being measured. As a reminder, the IC90 is the concentration at which the effect reaches the 90% level.

As for `Cc1cc2ccccn2c1C(=O)c1ccccc1Br`, the concentration for an effect of 90% (IC90) was over 10 µM. In addition, the IC50 (HEPG2TOX_HILL_SLOPE 6.22, HEPG2TOX_R_SQUARED 0.365, PBLUC_HILL_SLOPE 4.01, PBLUC_R_SQUARED 0.105, read-out: LUCIFERASE INFECTION ASSAY - IC50) was 9.81 µM.
With `COc1ccccc1N(CC(=O)NCC12CC3CC(CC(C3)C1)C2)S(=O)(=O)c1ccccc1`, the IC90 is over 10 µM. Also, under “HEPG2TOX_HILL_SLOPE 6.27, HEPG2TOX_R_SQUARED 0.869, read-out: LUCIFERASE INFECTION ASSAY - IC50”, the IC50 is over 10 µM.
As for `CCOC(=O)c1c(C)[nH]c(/C(C)=N/Nc2nc3ccccc3[nH]2)c1C`, the IC90 was over 10 µM. Also, the IC50 (HEPG2TOX_HILL_SLOPE 6.05, HEPG2TOX_R_SQUARED 0.279, PBLUC_HILL_SLOPE 4.56, PBLUC_R_SQUARED 0.397, read-out: LUCIFERASE INFECTION ASSAY - IC50) stood at 8.41 µM.
As for `Cc1ccc(C)c(-c2nn(C(C)C(=O)Nc3cc(C)on3)c(=O)c3ccccc23)c1` (stereo not drawn), the concentration for an effect of 90% (IC90) turned out to be 3.83 µM. Further, the IC50 (HEPG2TOX_HILL_SLOPE 5.97, HEPG2TOX_R_SQUARED 0.339, PBLUC_HILL_SLOPE 3.63, PBLUC_R_SQUARED 0.528, read-out: LUCIFERASE INFECTION ASSAY - IC50) was determined as 2.09 µM.
As for `CC(=O)c1ccc(-c2ccc(C(=O)N3CCC(c4nc5ccccc5o4)CC3)o2)cc1`, the concentration for an effect of 90% (IC90) was over 10 µM. The IC50 (HEPG2TOX_HILL_SLOPE 6.21, HEPG2TOX_R_SQUARED 0.873, read-out: LUCIFERASE INFECTION ASSAY - IC50) is over 10 µM.
As for `Cc1ccc(-c2noc(CCC(=O)N3CCN(C/C=C/c4ccccc4)CC3)n2)cc1`, the 90% effect concentration (IC90) was over 10 µM. In addition, the IC50 (HEPG2TOX_HILL_SLOPE 6.22, HEPG2TOX_R_SQUARED 0.551, PBLUC_HILL_SLOPE 3.17, PBLUC_R_SQUARED 0.265, read-out: LUCIFERASE INFECTION ASSAY - IC50) was 5.07 µM.
For the compound `COc1cccc(-c2cnn3ccc(Nc4cc(OC)c(OC)c(OC)c4)nc23)c1`, the IC90 stood at 3.34 µM. For the same compound, the IC50 (HEPG2TOX_HILL_SLOPE 6.32, HEPG2TOX_R_SQUARED 0.972, PBLUC_HILL_SLOPE 10.3, PBLUC_R_SQUARED 0.636, read-out: LUCIFERASE INFECTION ASSAY - IC50) worked out at 2.7 µM.
In the case of `O=C(NNC(=S)Nc1cccc(C(F)(F)F)c1)c1cccn1-c1ccc(F)cc1`, the concentration for an effect of 90% (IC90) was over 7.81 µM. Moreover, the IC50 (HEPG2TOX_HILL_SLOPE 5.96, HEPG2TOX_R_SQUARED 0.739, PBLUC_HILL_SLOPE 1.03, PBLUC_R_SQUARED 0.767, read-out: LUCIFERASE INFECTION ASSAY - IC50) was over 7.81 µM.
On to `CC(C)C(CNc1ncnc2cc(Cl)ccc12)N1CCN(C)CC1` (stereo not drawn), for which the IC90 was over 10 µM. The IC50 (HEPG2TOX_HILL_SLOPE 6.21, HEPG2TOX_R_SQUARED 0.178, read-out: LUCIFERASE INFECTION ASSAY - IC50) is over 10 µM.
For `COc1ccc(Cl)c(Nc2nc(-c3c(-c4ccc(Cl)cc4Cl)noc3C)cs2)c1`, the IC90 was over 7.07 µM. For the same compound, under “HEPG2TOX_HILL_SLOPE 6.31, HEPG2TOX_R_SQUARED 0.301, PBLUC_HILL_SLOPE 9.51, PBLUC_R_SQUARED 0.295, read-out: LUCIFERASE INFECTION ASSAY - IC50”, the 50% inhibitory concentration (IC50) was found to be 6.34 µM.
Consider `Cc1ccc(-c2nnc3n2CCCCC3)cc1NC(=O)c1ccc([N+](=O)[O-])o1`, for which the 90% effect concentration (IC90) is over 10 µM. The IC50 (HEPG2TOX_HILL_SLOPE 6.11, HEPG2TOX_R_SQUARED 0.316, PBLUC_HILL_SLOPE 1.35, PBLUC_R_SQUARED 0.486, read-out: LUCIFERASE INFECTION ASSAY - IC50) is 6.12 µM.
As for `COc1ccc(-c2cnn3ccc(Nc4ccc(OC)nc4)nc23)c(OC)c1`, the concentration for an effect of 90% (IC90) was found to be 3.63 µM. For the same compound, the IC50 (HEPG2TOX_HILL_SLOPE 6.09, HEPG2TOX_R_SQUARED 0.857, PBLUC_HILL_SLOPE 12.3, PBLUC_R_SQUARED 0.558, read-out: LUCIFERASE INFECTION ASSAY - IC50) was 3.03 µM.
`O=C(Nc1cccc(Cl)c1)Nc1ccccc1N1CCCC1`: the IC90 is over 10.4 µM. For the setting “HEPG2TOX_HILL_SLOPE 6.22, HEPG2TOX_R_SQUARED 0.342, PBLUC_HILL_SLOPE 2.56, PBLUC_R_SQUARED 0.455, read-out: LUCIFERASE INFECTION ASSAY - IC50”, the IC50 was 6.9 µM.
Regarding `CC(C)(C)c1cc(C(=O)Nc2cc(-c3cccs3)nn2-c2ccc(F)cc2)n(Cc2ccccc2)n1`, the 90% effect concentration (IC90) was over 6.61 µM. Besides, the IC50 (HEPG2TOX_HILL_SLOPE 6.06, HEPG2TOX_R_SQUARED 0.212, read-out: LUCIFERASE INFECTION ASSAY - IC50) is over 6.61 µM.
For `O=C(Nc1ccccc1)Nc1nc2ccc([N+](=O)[O-])cc2s1`, the concentration for an effect of 90% (IC90) turned out to be 7.31 µM. Moreover, under “HEPG2TOX_HILL_SLOPE 6.06, HEPG2TOX_R_SQUARED 0.204, PBLUC_HILL_SLOPE 4.24, PBLUC_R_SQUARED 0.473, read-out: LUCIFERASE INFECTION ASSAY - IC50”, the half-inhibitory concentration (IC50) was 4.36 µM.
For `O=C1N/C(=N\C2CCCC2)S/C1=C\c1ccc2c(c1)OCCO2`, the concentration for an effect of 90% (IC90) was 7.77 µM. Also, the concentration for half-maximal inhibition (IC50) (HEPG2TOX_HILL_SLOPE 6.25, HEPG2TOX_R_SQUARED 0.845, PBLUC_HILL_SLOPE 2.64, PBLUC_R_SQUARED 0.759, read-out: LUCIFERASE INFECTION ASSAY - IC50) turned out to be 3.38 µM.
As for `O=c1[nH][nH]c(-c2ccccc2)c1C=NCc1cccc(C(F)(F)F)c1`, the concentration for an effect of 90% (IC90) is over 9.56 µM. In addition, where the note is “HEPG2TOX_HILL_SLOPE 6.09, HEPG2TOX_R_SQUARED 0.916, PBLUC_HILL_SLOPE 3.54, PBLUC_R_SQUARED 0.303, read-out: LUCIFERASE INFECTION ASSAY - IC50”, the half-inhibitory concentration (IC50) stood at 7.61 µM.
For the compound `CC1CCCN(C(=O)COc2ccc(-c3nc4ccccc4s3)cc2)C1` (stereo not drawn), the 90% effect concentration (IC90) is over 10 µM. Under “HEPG2TOX_HILL_SLOPE 6.02, HEPG2TOX_R_SQUARED 0.809, PBLUC_HILL_SLOPE 2.74, PBLUC_R_SQUARED 0.285, read-out: LUCIFERASE INFECTION ASSAY - IC50”, the IC50 was 6.51 µM.
`c1cncc(-c2nc(NCc3ccnc(N4CCCC4)c3)c3ccccc3n2)c1`: the IC90 is over 10 µM. In addition, the IC50 (HEPG2TOX_HILL_SLOPE 5.98, HEPG2TOX_R_SQUARED 0.222, PBLUC_HILL_SLOPE 14.9, PBLUC_R_SQUARED 0.594, read-out: LUCIFERASE INFECTION ASSAY - IC50) amounted to 9.31 µM.
For the compound `CCn1c(NC(=O)Cc2csc(-n3c(C)ccc3C)n2)nc2ccccc21`, the IC90 was over 10 µM. Moreover, the IC50 (HEPG2TOX_HILL_SLOPE 6.15, HEPG2TOX_R_SQUARED 0.156, PBLUC_HILL_SLOPE 14.1, PBLUC_R_SQUARED 0.172, read-out: LUCIFERASE INFECTION ASSAY - IC50) is 8.84 µM.
Consider `Cc1cccn2c(=O)cc(CN3C(=O)NC(C)(c4ccc(F)cc4)C3=O)nc12` (stereo not drawn), for which the 90% effect concentration (IC90) was over 2 µM. For the setting “HEPG2TOX_HILL_SLOPE 5.95, HEPG2TOX_R_SQUARED 0.496, PBLUC_HILL_SLOPE 2.16, PBLUC_R_SQUARED 0.177, read-out: LUCIFERASE INFECTION ASSAY - IC50”, the IC50 was 1.96 µM.
On to `Fc1ccc(Nc2nccc3nc(-c4ccccc4Cl)[nH]c23)cc1Cl`, for which the IC90 was over 10 µM. Besides, the half-inhibitory concentration (IC50) (HEPG2TOX_HILL_SLOPE 6.23, HEPG2TOX_R_SQUARED 0.841, PBLUC_HILL_SLOPE 1.89, PBLUC_R_SQUARED 0.243, read-out: LUCIFERASE INFECTION ASSAY - IC50) was found to be 5.64 µM.
Consider `COc1cc(/C=C(/C(=O)OCC(=O)NC2CCCCC2C)c2ccc(-c3ccccc3)cc2)cc(OC)c1OC` (stereo not drawn), for which the IC90 was 3.8 µM. The half-inhibitory concentration (IC50) (HEPG2TOX_HILL_SLOPE 6.06, HEPG2TOX_R_SQUARED 0.736, PBLUC_HILL_SLOPE 16.1, PBLUC_R_SQUARED 0.664, read-out: LUCIFERASE INFECTION ASSAY - IC50) is 3.32 µM.
As to `CCN1CCN(c2nc(-c3ccccc3)nc3sc(-c4ccccc4)cc23)CC1`, the IC90 is over 10 µM. Further, where the note is “HEPG2TOX_HILL_SLOPE 6.07, HEPG2TOX_R_SQUARED 0.861, PBLUC_HILL_SLOPE 3.24, PBLUC_R_SQUARED 0.199, read-out: LUCIFERASE INFECTION ASSAY - IC50”, the half-maximal inhibitory concentration (IC50) was 6.9 µM.
Regarding `Cc1nnc(Sc2ccc([N+](=O)[O-])c(Sc3nnc(C)s3)n2)s1`, the IC90 was over 8.58 µM. Besides, the half-maximal inhibitory concentration (IC50) (HEPG2TOX_HILL_SLOPE 6.33, HEPG2TOX_R_SQUARED 0.72, PBLUC_HILL_SLOPE 8.1, PBLUC_R_SQUARED 0.222, read-out: LUCIFERASE INFECTION ASSAY - IC50) was over 8.58 µM.
Turning to `NC(=NC(=S)Nc1cc(Cl)ccc1Cl)c1ccccc1`, the 90% effect concentration (IC90) is over 10.2 µM. For the same compound, the concentration for half-maximal inhibition (IC50) (HEPG2TOX_HILL_SLOPE 6.22, HEPG2TOX_R_SQUARED 0.375, read-out: LUCIFERASE INFECTION ASSAY - IC50) is over 10.2 µM.
As for `CCCc1cc(=O)n2nc(Cc3ccccc3)c(-c3ccccc3)c2[nH]1`, the IC90 is over 9.61 µM. The IC50 (HEPG2TOX_HILL_SLOPE 6.09, HEPG2TOX_R_SQUARED 0.391, read-out: LUCIFERASE INFECTION ASSAY - IC50) is over 9.61 µM.
With `CC(C)(C)c1cc(NC(=O)Cn2cnc3scc(-c4ccccc4)c3c2=O)on1`, the IC90 was over 10 µM. The half-inhibitory concentration (IC50) (HEPG2TOX_HILL_SLOPE 6.06, HEPG2TOX_R_SQUARED 0.374, PBLUC_HILL_SLOPE 1.95, PBLUC_R_SQUARED 0.0898, read-out: LUCIFERASE INFECTION ASSAY - IC50) was over 10 µM.
With `CCOC(=O)c1c(C)[nH]c(C(=O)C(C)N2CCN(c3ccccc3O)CC2)c1C` (stereo not drawn), the IC90 is over 10 µM. Moreover, the IC50 (HEPG2TOX_HILL_SLOPE 6.06, HEPG2TOX_R_SQUARED 0.507, PBLUC_HILL_SLOPE 4.15, PBLUC_R_SQUARED 0.577, read-out: LUCIFERASE INFECTION ASSAY - IC50) is 7.31 µM.
